*: point of attachment. AMC = Cc1cc(=O)oc2cc(N*)ccc12
Target: T1, SIRT5 (Homo sapiens, UniProt Q9NXA8)
T1 sequence (Q9NXA8 37-310): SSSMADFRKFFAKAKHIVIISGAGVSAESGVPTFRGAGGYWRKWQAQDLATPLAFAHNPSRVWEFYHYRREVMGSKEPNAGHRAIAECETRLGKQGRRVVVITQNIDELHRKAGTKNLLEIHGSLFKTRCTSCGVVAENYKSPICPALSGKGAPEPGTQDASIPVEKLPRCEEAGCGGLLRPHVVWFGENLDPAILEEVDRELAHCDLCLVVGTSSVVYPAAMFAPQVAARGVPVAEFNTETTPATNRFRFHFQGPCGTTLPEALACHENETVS
Assay: SIRT5 desuccinylation/deacetylation of fluorogenic lysyl substrates, trypsin developer
Type: biochemical
Design: purchased Enzo Life Sciences BML-SE555
Conditions: for Dependence of SIRT5 initial rate on substrate concentration: 20 min. at 37° C.
Description: FIG. 3 is graphs showing that SIRT5 catalyzes NAD^+-dependent desuccinylation of Ac-Lys(ε-succinyl)-AMC far more efficiently than NAD^+-dependent deacetylation of Ac-Arg-His-Lys-Lys(ε-acetyl)-AMC. Fifty μl reactions in Assay Buffer (50 mM Tris/HCl, pH 8.0, 137 mM NaCl, 2.7 mM KCl, 1 mM MgCl2, 1 mg/ml BSA) included 50 μM of either Ac-Lys(ε-succinyl)-AMC or Ac-Arg-His-Lys-Lys(ε-acetyl)-AMC, and, where indicated, 500 μM NAD^+ and 5 μg recombinant human SIRT5 (Enzo Life Sciences Cat. # BML-SE555). […] AMC fluorescence was read in a Cytofluor II plate-reading fluorimeter (Perseptive Biosystems) at wavelengths 360 nm (excitation)/460 nm (emission), Gain 54. Data represent the mean of two (No Enzyme) or three (+SIRT5) determinations and error bars the standard deviations. Panels A and B present the same data, but with the +SIRT5/+NAD^+/Ac-Lys(ε-succinyl)-AMC bar omitted from B to show the detail on the remaining bars. Statistically significant differences (Student's t-test) are indicated by asterisks as follows: *: p<0.02 vs. corresponding No Enzyme control; **: p<0.001 vs. corresponding −NAD^+ control; ***: p<3×10^−6 vs. both No Enzyme and −NAD^+ controls.
FIG. 4 is a graph showing that Ac-Lys(Succ.)-AMC enables SIRT5 assay at low enzyme concentrations. Fifty μl reactions in Assay Buffer (50 mM Tris/HCl, pH 8.0, 137 mM NaCl, 2.7 mM KCl, 1 mM MgCl2, 1 mg/ml BSA) included 2 or 10 μM Ac-Lys(ε-succinyl)-AMC, 500 μM NAD^+ and, where indicated, 5 ng recombinant human SIRT5 (Enzo Life Sciences Cat. # BML-SE555). […] AMC fluorescence was read in a Synergy 2 plate-reading fluorimeter (BioTek) at wavelengths 360 nm (excitation)/460 nm (emission), Gain 40. Data represent the mean of two (No Enzyme) or three (5 ng SIRT5) determinations and error bars the standard deviations. Statistically significant differences (Student's t-test) are indicated by asterisks as follows: *: p=0.002; **: p=0.009, each with respect to the corresponding “No SIRT5” samples.
FIG. 5 is graphs showing dependence of SIRT5 initial rate kinetics on the concentrations of Ac-Lys(Succ.)-AMC and Ac-Lys(Ac.)-AMC. Fifty μl desuccinylation or deacetylation reactions were performed as described earlier (FIG. 4), with the indicated concentrations of Ac-Lys(Succ.)-AMC or Ac-Lys(Ac.)-AMC and 1 mM NAD^+, for 20 min. at 37° C. Reactions with Ac-Lys(Succ.)-AMC contained 10 ng SIRT5 and those with Ac-Lys(Ac.)-AMC contained 5 SIRT5. Reactions were stopped and AMC cleaved from deacetylated or desuccinylated substrate by trypsin treatment as described earlier (FIG. 4). AMC fluorescence was read in a Synergy 2 plate-reading fluorimeter (BioTek) at wavelengths 360 nm (excitation)/460 nm (emission), Gain 40. Data represent the mean of the differences of three determinations with enzyme (10 ng or 5 SIRT5) from the mean of two no enzyme samples for each substrate concentration. Error bars are the standard deviations from those means. Fluorescence differences were converted to specific activities (pmol/min/μg) by measuring the fluorescence increase due to the addition a standard solution of AMC (5 μl of a […]).
FIG. 6 is a graph showing the dependence of SIRT5 initial rate kinetics of Ac-Lys(Succ.)-AMC desuccinylation on the concentration of NAD^+. Reaction conditions were as described for FIG. 5 but with a constant Ac-Lys(Succ.)-AMC concentration of 0.5 mM and the indicated concentrations of NAD^+. Data analysis and determination of kinetic parameters were as described (FIG. 5).
FIG. 12 is graphs showing that SIRT5 catalyzes NAD^+-dependent desuccinylation of (Ac-Lys(Succ.))2-R110 far more efficiently than NAD^+-dependent deacetylation of (Ac-Lys(Ac.))2-R110. Fifty μl reactions in Assay Buffer (50 mM Tris/HCl, pH 8.0, 137 mM NaCl, 2.7 mM KCl, 1 mM MgCl2, 1 mg/ml BSA) included 50 μM of either (Ac-Lys(Succ.))2-R110 or (Ac-Lys(Ac.))2-R110, and, where indicated, 500 μM NAD^+ and 5 μg recombinant human SIRT5 (Enzo Life Sciences Cat. # BML-SE555). […]

[1] = SIRT5, 50 μM substrate, 500 μM NAD^+

Row | Activity [1] | Fraction of substrate desuccinylated (5 μg SIRT5 (3 μM in 50 μl), 50 μM substrate, 60 min.) | Desuccinylation relative to deacetylation of Ac-Arg-His-Lys-Lys(ε-acetyl)-AMC (5 μg SIRT5 per 50 μl, 50 μM substrate, 500 μM NAD^+, 60 min.) | kcat (varied substrate: Lysyl, 1 mM NAD^+) | kcat (varied substrate: NAD^+, constant 0.5 mM Ac-Lys(Succ.)-AMC) | Activity (pmol/min/μg) [1] | Molecule | Dependence of SIRT5 initial rate on substrate concentration (1 mM NAD^+) | SIRT5/NAD^+ dependence of desuccinylation (5 μg SIRT5, 50 μM substrate, 500 μM NAD^+, 60 min.)
1 | 0.0174 pmol/min/µg | – | – | – | – | – | CC(=O)NCCCCC(NC(C)=O)C(=O)Nc1ccc2c(C)cc(=O)oc2c1 (stereo not shown) [Ac-Lys(Ac.)-AMC, Ac-Lys(ε-acetyl)-AMC, reference compound] | remains linear over the concentration range of the assay | –
2 | 115 pmol/min/µg | ~50% | at least 250 fold | 0.26 s⁻¹ | 0.29 s⁻¹ | – | CC(=O)N[C@@H](CCCCNC(=O)CCC(=O)O)C(=O)Nc1ccc2c(C)cc(=O)oc2c1 [Compound 1, N—(N^α-acetyl-L-Lysine(N^ε-succinyl))-AMC] | displays saturation kinetics | entirely dependent on the presence of SIRT5 and NAD^+
3 | – | – | – | – | – | Ac-RHKK(Ac)-AMC/0.364 pmol/min/μg | Ac-Arg-His-Lys-Lys(ε-acetyl)-AMC (Ac-RHKK(Ac)-{AMC}; SMILES CC(=O)NCCCC[C@H](NC(=O)[C@H](CCCCN)NC(=O)[C@H](Cc1c[nH]cn1)NC(=O)[C@H](CCCNC(=N)N)NC(C)=O)C(=O)Nc1ccc2c(C)cc(=O)oc2c1) [Ac-RHKK(Ac)-AMC, p53 peptide fluorogenic deacetylase substrate, Cat. # BML-KI177, reference compound] | – | –

From patent US10920265B2, “Compounds and methods for detection of enzymes that remove methyl succinyl groups from epsilon-amino lysine moieties” (Enzo Life Sciences, Inc., priority 2011, dated 2021)
